Like-named read-outs stand apart in the source and are kept apart here.
How the values were obtained:
second instar larvae = test: Mortality of second instar larvae on pot-grown cabbage treated with a 1000 ppm suspension (Test Example 2); type: in vivo
Method: 30 ml of a 1000 ppm suspension of each sample compound (30% wettable powder) was poured into a pot in which cabbage (2 to 3 leaf stage) was grown, and the pot was placed in a greenhouse enclosed by glass. 3 days after applying the sample compound, the cabbage was covered by a cylindrical metal netting having a diameter of 7.5 cm and a height of 20 cm and 10 second instar larvae were released in the netting. 48 hours after applying the numbers of living and dead insects were checked. The test was repeated twice.

[1] = test system: Green rice leafhopper (Nephotettix cincticeps); test: Mortality of Green rice leafhopper female adults on pot-grown rice plants treated with a 1000 ppm suspension (Test Example 1); type: in vivo
Method: 10 ml of a 1000 ppm suspension of each sample compound (30% wettable powder) was poured into a pot in which rice plant (1.5 leaf stage) was grown, and the pot was placed in a greenhouse enclosed by glass. 3 days after applying the sample compound, the rice plant was covered by a cylindrical metal netting having a diameter of 7.5 cm and a height of 40 cm and 10 female adults of Green rice leafhopper (Nephotettix cincticeps) were released in the netting. The numbers of living and dead insects were checked 48 hours after applying. The test was repeated twice.

[2] = test system: Southern root-knot nematode (Meloidogyne incognita); test: Root-knot index on tomato seedlings in soil contaminated with Southern root-knot nematode (Test Example 3); type: in vivo; conditions: 3% granule, checked 25 days after transplanting
Method: A predetermined quantity of a 3% granule of each compound was mixed with a soil contaminated with Southern root-knot nematode (Meloidogyne incognita). 2 days after treatment of the compound, 3 to 4 leaf stage tomato seedlings were transplanted, and the root-knot index was checked 25 days later.
The root-knot index was determined with the following standard for nemotoidal evaluation.
2 Moderate number of root-knots found
4 Very many root-knots found

[3] = Acute oral toxicity in mice (Toxicity Test Example); conditions: mouse, in vivo, male mice, 7 days after administration, Litchfield-Wilcoxon Method
Method: Representative examples of the compound of this invention were administered orally to mice (.male.) and the acute toxicities thereof were tested. LD50 was calculated from the percentage of dead mice according to the Litchfield-Wilcoxon Method 7 days after the administration.

[4] = test system: warm-blooded animals and fishes; conditions: prior art statement; cited from earlier work

Row | Compound | mortality at 1000 ppm (second instar larvae; 48 h) | mortality at 1000 ppm ([1]; 48 h) | Root-Knot Index ([2]; Active Ingredient 250 g/a) | Root-Knot Index ([2]; Active Ingredient 500 g/a) | LD50 at 168 h [3] | toxicity to warm-blooded animals and fishes [4] | mortality at 1000 ppm (second instar larvae; 30 ml of 1000 ppm suspension (30% wettable powder) per pot, larvae released 3 days after applying, checked at 48 hours, repeated twice, read-out: Mortality) | mortality at 1000 ppm ([1]; 10 ml of 1000 ppm suspension (30% wettable powder) per pot, insects released 3 days after applying, checked at 48 hours, repeated twice, read-out: Mortality)
1 | CN(C(=O)NS(=O)(=O)Cl)C(=O)Oc1cccc2c1OC(C)(C)C2 [Compound No. 1, 2,3-Dihydro-2,2-dimethylbenzofuran-7-yl N-(chlorosulfonylcarbamoyl) N-methylcarbamate] | 100% | 100% | 2 | 1 |  |  |  | 
2 | CNS(=O)(=O)NC(=O)N(C)C(=O)Oc1cccc2c1OC(C)(C)C2 [Compound No. 2, 2,3-Dihydro-2,2-dimethylbenzofuran-7-yl N-(methylsulfamoylcarbamoyl) N-methylcarbamate] | 100% | 100% | 3 | 2 |  |  |  | 
3 | CCNS(=O)(=O)NC(=O)N(C)C(=O)Oc1cccc2c1OC(C)(C)C2 [Compound No. 3, 2,3-Dihydro,2,2-dimethylbenzofurane-7-yl N-(ethylsulfamoylcarbamoyl) N-methylcarbamate] | 100% | 100% | 2 | 1 | 170 mg/kg |  |  | 
4 | CC(C)NS(=O)(=O)NC(=O)N(C)C(=O)Oc1cccc2c1OC(C)(C)C2 [Compound No. 4] | 100% | 100% | 2 | 1 |  |  |  | 
5 | CCCCNS(=O)(=O)NC(=O)N(C)C(=O)Oc1cccc2c1OC(C)(C)C2 [Compound No. 5, 2,3-dihydro-2,2-dimethylbenzofuran-7-yl N-(butylsulfamoylcarbamoyl) N-methylcarbamate] | 100% | 100% | 2 | 1 | 200 mg/kg |  |  | 
6 | CNC(=O)Oc1cccc2c1OC(C)(C)C2 [Control, 2,3-dihydro-2,2-dimethylbenzofuran-7-yl N-methyl-carbamate] |  |  |  |  |  | extremely toxic to warm-blooded animals and fishes |  | 
7 | CNC(=O)Oc1cccc2c1OC(C)(C)C2 [Control] |  |  |  |  | 5 mg/kg |  | 100% | 100%
8 | C#CCNS(=O)(=O)NC(=O)N(C)C(=O)Oc1cccc2c1OC(C)(C)C2 [compound 7, 2,3-dihydro-2,2-dimethylbenzofuran-7-yl N-(propargylsulfamoylcarbamoyl) N-methylcarbamate] | 100% | 100% | 2 | 1 |  |  |  | 
9 | CN(C(=O)NS(=O)(=O)Nc1ccccc1Cl)C(=O)Oc1cccc2c1OC(C)(C)C2 [compound 8] |  | 90% | 3 | 2 |  |  |  | 
10 | COc1ccccc1NS(=O)(=O)NC(=O)N(C)C(=O)Oc1cccc2c1OC(C)(C)C2 [compound 9] |  | 90% | 3 | 2 |  |  |  | 
11 | COC(=O)c1ccccc1NS(=O)(=O)NC(=O)N(C)C(=O)Oc1cccc2c1OC(C)(C)C2 [compound 10] |  | 90% | 2 | 1 |  |  |  | 
12 | CCOC(=O)c1ccc(NS(=O)(=O)NC(=O)N(C)C(=O)Oc2cccc3c2OC(C)(C)C3)cc1 [compound 11] |  | 90% | 3 | 2 |  |  |  | 
13 | CN(C(=O)NS(=O)(=O)Nc1nccs1)C(=O)Oc1cccc2c1OC(C)(C)C2 [compound 12] |  | 100% | 3 | 2 |  |  |  | 
14 | CN(C(=O)NS(=O)(=O)Nc1ccccn1)C(=O)Oc1cccc2c1OC(C)(C)C2 [compound 13] |  | 100% | 3 | 2 |  |  |  | 
15 | CONS(=O)(=O)NC(=O)N(C)C(=O)Oc1cccc2c1OC(C)(C)C2 [compound 14, 2,3-dihydro-2,2-dimethylbenzofuran-7-yl N-(methoxysulfamoylcarbamoyl) N-methylcarbamate] |  | 100% | 3 | 2 |  |  |  | 
16 | CCCNS(=O)(=O)NC(=O)N(C)C(=O)Oc1cccc2c1OC(C)(C)C2 [compound 15, 2,3-dihydro-2,2-dimethylbenzofuran-7-yl N-(propylsulfamoylcarbamoyl) N-methylcarbamate] | 100% | 100% | 2 | 1 |  |  |  | 
17 | CCC(C)NS(=O)(=O)NC(=O)N(C)C(=O)Oc1cccc2c1OC(C)(C)C2 (centres unmarked) [compound 16] | 100% | 100% | 2 | 1 |  |  |  | 
18 | CN(C(=O)NS(=O)(=O)NC(C)(C)C)C(=O)Oc1cccc2c1OC(C)(C)C2 [compound 17] | 100% | 100% | 2 | 1 |  |  |  | 
19 | CN(C(=O)NS(=O)(=O)NC1CCCC1)C(=O)Oc1cccc2c1OC(C)(C)C2 [compound 18] |  | 80% |  |  |  |  |  | 
20 | CN(C(=O)NS(=O)(=O)NC1CCCCC1)C(=O)Oc1cccc2c1OC(C)(C)C2 [compound 19] |  | 80% |  |  |  |  |  | 

Reference: US4966896A, “Derivative of N-methylcarbamate and insecticide containing the same” (priority 1988, dated 1990)
